# Test results from patent US8580831B2, “Fluorinated aminotriazole derivatives” (Actelion Pharmaceuticals Ltd., priority 2009, dated 2013).
# Target: T1, human ALX receptor (Homo sapiens, UniProt P25090)
# T1 construct: expressed in transfected cells; host or cells: HEK293 (HEK293-hALXR-Ga16)
# T1 sequence (P25090 1-351): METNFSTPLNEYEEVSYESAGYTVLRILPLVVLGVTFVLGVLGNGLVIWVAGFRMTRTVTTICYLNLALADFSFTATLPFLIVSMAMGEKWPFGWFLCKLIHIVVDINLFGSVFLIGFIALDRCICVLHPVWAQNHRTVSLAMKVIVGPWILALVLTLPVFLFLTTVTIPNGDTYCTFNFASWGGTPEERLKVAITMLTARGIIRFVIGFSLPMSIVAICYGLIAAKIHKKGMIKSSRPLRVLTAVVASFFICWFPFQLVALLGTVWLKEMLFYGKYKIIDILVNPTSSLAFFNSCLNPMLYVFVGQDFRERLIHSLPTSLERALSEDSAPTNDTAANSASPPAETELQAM
# Assay: Intracellular calcium measurements (FLIPR), ALX receptor agonistic activity
# Assay type: cell-based
# Details: HEK293-hALXR-Ga16 cells, calcium flux, normalized to WKYMVm 10 nM; read-out: EC50 (agonistic activity with respect to the ALX receptor)
# Description: The ALX receptor agonistic activity of the compounds of formula (I) is determined in accordance with the following experimental method.
# Intracellular Calcium Measurements:
# Cells expressing recombinant human ALX receptor and the G-protein Ga16 (HEK293-hALXR-Ga16) were grown to 80% confluency in Growing Medium (GM). Cells were detached from culture dishes with a cell dissociation buffer (Invitrogen, 13151-014), and collected by centrifugation at 1′000 rpm at rt for 5 min in Assay Buffer (AB) (equal parts of Hank's BSS (Gibco, 14065-049) and DMEM without Phenol Red (Gibco, 11880-028)). After 60 min incubation at 37° C. under 5% CO2 in AB supplemented with 1 μM Fluo-4 (AM) (Invitrogen, F14202) and 20 mM HEPES (Gibco, 15630-056), the cells were washed and resuspended in AB. They were then seeded onto 384-well FLIPR assay plates (Greiner, 781091) at 50′000 cells in 70 μl per well and sedimented by centrifugation at 1′000 rpm for 1 min. Stock solutions of test compounds were made up at a concentration of 10 mM in DMSO, and serially diluted in AB to concentrations required for activation dose response curves. WKYMVm (Phoenix Peptides) was used as a reference agonist. A FLIPR Tetra instrument (Molecular Devices) was operated according to the manufacturer's standard instructions, adding 4 μl of test compound dissolved at 10 mM in DMSO and diluted prior to the experiment in assay buffer to obtain the desired final concentration. Changes in fluorescence were monitored before and after the addition of test compounds at lex=488 nm and lem=540 nm. Emission peak values above base level after compounds addition were exported after base line subtraction. Values were normalized to high-level control (WKYMVm compound, 10 nM final concentration) after subtraction of the base line value (AB addition).
row,Structure (SMILES),EC50 [nM]
1,"Cc1nc(C(=O)Nc2cnn(Cc3ccc(C(C)(F)F)o3)n2)c(-c2cccc(Cl)c2)o1 [Example 15, 5-(3-Chloro-phenyl)-2-methyl-oxazole-4-carboxylic acid{2-[5-(1,1-difluoro-ethyl)-furan-2-ylmethyl]-2H-[1,2,3]triazol-4-yl}-amide]",23
2,"Cc1cc(F)cc(-c2oc(C)nc2C(=O)Nc2cnn(Cc3ccc(C(C)(F)F)o3)n2)c1 [Example 26, 5-(3-Fluoro-5-methyl-phenyl)-2-methyl-oxazole-4-carboxylic acid {2-[5-(1,1-difluoro-ethyl)-furan-2-ylmethyl]-2H-[1,2,3]triazol-4-yl}-amide]",742
3,"Cc1cccc(-c2oc(C)nc2C(=O)Nc2cnn(Cc3coc(C(C)(F)F)n3)n2)c1 [Example 32, N-(2-((2-(1,1-Difluoroethyl)oxazol-4-yl)methyl)-2H-1,2,3-triazol-4-yl)-2-methyl-5-(m-tolyl)oxazole-4-carboxamide]",12
4,"Cc1nc(C(=O)Nc2cnn(Cc3ccc(C(C)(F)F)o3)n2)c(-c2cccc(OC(F)(F)F)c2)o1 [Example 27, 2-Methyl-5-(3-trifluoromethoxy-phenyl)-oxazole-4-carboxylic acid {2-[5-(1,1-difluoro-ethyl)-furan-2-ylmethyl]-2H-[1,2,3]triazol-4-yl}-amide]",59
5,"CC(F)(F)c1ccc(Cn2ncc(NC(=O)c3ncoc3-c3ccccc3)n2)o1 [Example 28, 5-Phenyl-oxazole-4-carboxylic acid {2-[5-(1,1-difluoro-ethyl)-furan-2-ylmethyl]-2H-[1,2,3]triazol-4-yl}-amide]",6
6,"CC(F)(F)c1ccc(Cn2ncc(NC(=O)c3ncoc3-c3ccc(F)cc3)n2)o1 [Example 16, 5-(4-Fluoro-phenyl)-oxazole-4-carboxylic acid{2-[5-(1,1-difluoro-ethyl)-furan-2-ylmethyl]-2H-[1,2,3]triazol-4-yl}-amide]",46
7,"Cc1nc(C(=O)Nc2cnn(Cc3ccc(C(C)(F)F)o3)n2)c(-c2ccccc2)o1 [Example 4, 2-Methyl-5-phenyl-oxazole-4-carboxylic acid{2-[5-(1,1-difluoro-ethyl)-furan-2-ylmethyl]-2H-[1,2,3]triazol-4-yl}-amide]",0.9
8,"Cc1nc(C(=O)Nc2cnn(Cc3ccc(C(C)(F)F)o3)n2)c(-c2cc(F)cc(F)c2)o1 [Example 18, 5-(3,5-Difluoro-phenyl)-2-methyl-oxazole-4-carboxylic acid {2-[5-(1,1-difluoro-ethyl)-furan-2-ylmethyl]-2H-[1,2,3]triazol-4-yl}-amide]",661
9,"Cc1nc(C(=O)Nc2cnn(Cc3ccc(C(C)(F)F)o3)n2)c(-c2cccc(C(F)(F)F)c2)o1 [Example 24, 2-Methyl-5-(3-trifluoromethyl-phenyl)-oxazole-4-carboxylic acid {2-[5-(1,1-difluoro-ethyl)-furan-2-ylmethyl]-2H-[1,2,3]triazol-4-yl}-amide]",2.1
10,"Cc1nc(C(=O)Nc2cnn(Cc3nc(C(C)(F)F)co3)n2)c(-c2ccc(F)c(N(C)C)c2)o1 [Example 36, 5-(3-Dimethylamino-4-fluoro-phenyl)-2-methyl-oxazole-4-carboxylic acid{2-[4-(1,1-difluoro-ethyl)-oxazol-2-ylmethyl]-2H-[1,2,3]triazol-4-yl}-amide]",77
11,"Cc1nc(C(=O)Nc2cnn(Cc3nc(C(C)(F)F)co3)n2)c(-c2ccccc2)o1 [Example 33, 2-Methyl-5-phenyl-oxazole-4-carboxylic acid {2-[4-(1,1-difluoro-ethyl)-oxazol-2-ylmethyl]-2H-[1,2,3]triazol-4-yl}-amide]",2.9

# Continued, values first:
row,EC50 [nM],Structure (SMILES)
1,19,"CC(F)(F)c1csc(Cn2ncc(NC(=O)c3ncoc3-c3ccccc3)n2)n1 [Example 2, 5-Phenyl-oxazole-4-carboxylic acid {2-[4-(1,1-difluoro-ethyl)-thiazol-2-ylmethyl]-2H-[1,2,3]triazol-4-yl}-amide]"
2,55,"CC(F)(F)c1csc(Cn2ncc(NC(=O)c3ncoc3-c3cccc(F)c3)n2)n1 [Example 20, 5-(3-Fluoro-phenyl)-oxazole-4-carboxylic acid {2-[4-(1,1-difluoro-ethyl)-thiazol-2-ylmethyl]-2H-[1,2,3]triazol-4-yl}-amide]"
3,46,"CC(F)(F)c1csc(Cn2ncc(NC(=O)c3ncoc3-c3cccc(Cl)c3)n2)n1 [Example 12, 5-(3-Chloro-phenyl)-oxazole-4-carboxylic acid{2-[4-(1,1-difluoro-ethyl)-thiazol-2-ylmethyl]-2H-[1,2,3]triazol-4-yl}-amide]"
4,10,"Cc1cccc(-c2ocnc2C(=O)Nc2cnn(Cc3ccc(C(C)(F)F)o3)n2)c1 [Example 23, 5-m-Tolyl-oxazole-4-carboxylic acid {2-[5-(1,1-difluoro-ethyl)-furan-2-ylmethyl]-2H-[1,2,3]triazol-4-yl}-amide]"
5,69,"COc1cccc(-c2ocnc2C(=O)Nc2cnn(Cc3nc(C(C)(F)F)cs3)n2)c1 [Example 8, 5-(3-Methoxy-phenyl)-oxazole-4-carboxylic acid{2-[4-(1,1-difluoro-ethyl)-thiazol-2-ylmethyl]-2H-[1,2,3]triazol-4-yl}-amide]"
6,14,"Cc1nc(C(=O)Nc2cnn(Cc3nc(C(C)(F)F)cs3)n2)c(-c2cccc(C(F)(F)F)c2)o1 [Example 6, 2-Methyl-5-(3-trifluoromethyl-phenyl)-oxazole-4-carboxylic acid {2-[4-(1,1-difluoro-ethyl)-thiazol-2-ylmethyl]-2H-[1,2,3]triazol-4-yl}-amide]"
7,221,"CC(F)(F)c1csc(Cn2ncc(NC(=O)c3ncoc3-c3ccc(F)cc3)n2)n1 [Example 25, 5-(4-Fluoro-phenyl)-oxazole-4-carboxylic acid {2-[4-(1,1-difluoro-ethyl)-thiazol-2-ylmethyl]-2H-[1,2,3]triazol-4-yl}-amide]"
8,291,"CC(F)(F)c1csc(Cn2ncc(NC(=O)c3nc(C4CC4)oc3-c3ccccc3)n2)n1 [Example 9, 2-Cyclopropyl-5-phenyl-oxazole-4-carboxylic acid{2-[4-(1,1-difluoro-ethyl)-thiazol-2-ylmethyl]-2H-[1,2,3]triazol-4-yl}-amide]"
9,818,"Cc1nc(C(=O)Nc2cnn(Cc3nc(C(C)(F)F)cs3)n2)c(-c2cc(F)cc(F)c2)o1 [Example 5, 5-(3,5-Difluoro-phenyl)-2-methyl-oxazole-4-carboxylic acid {2-[4-(1,1-difluoro-ethyl)-thiazol-2-ylmethyl]-2H-[1,2,3]triazol-4-yl}-amide]"
10,52,"CN(C)c1cccc(-c2ocnc2C(=O)Nc2cnn(Cc3nc(C(C)(F)F)cs3)n2)c1 [Example 22, 5-(3-Dimethylamino-phenyl)-oxazole-4-carboxylic acid {2-[4-(1,1-difluoro-ethyl)-thiazol-2-ylmethyl]-2H-[1,2,3]triazol-4-yl}-amide]"
11,9.9,"CC(F)(F)c1ccc(Cn2ncc(NC(=O)c3ncoc3-c3cccc(F)c3)n2)o1 [Example 11, 5-(3-Fluoro-phenyl)-oxazole-4-carboxylic acid {2-[5-(1,1-difluoro-ethyl)-furan-2-ylmethyl]-2H-[1,2,3]triazol-4-yl}-amide]"
12,7.7,"Cc1cccc(-c2oc(C)nc2C(=O)Nc2cnn(Cc3nc(C(C)(F)F)cs3)n2)c1 [Example 3, 2-Methyl-5-m-tolyl-oxazole-4-carboxylic acid{2-[4-(1,1-difluoro-ethyl)-thiazol-2-ylmethyl]-2H-[1,2,3]triazol-4-yl}-amide]"
13,6.3,"Cc1nc(C(=O)Nc2cnn(Cc3nc(C(C)(F)F)cs3)n2)c(-c2ccccc2)o1 [Example 10, 2-Methyl-5-phenyl-oxazole-4-carboxylic acid{2-[4-(1,1-difluoro-ethyl)-thiazol-2-ylmethyl]-2H-[1,2,3]triazol-4-yl}-amide]"
14,58,"Cc1nc(C(=O)Nc2cnn(Cc3nc(C(C)(F)F)cs3)n2)c(-c2cccc(OC(F)(F)F)c2)o1 [Example 14, 2-Methyl-5-(3-trifluoromethoxy-phenyl)-oxazole-4-carboxylic acid{2-[4-(1,1-difluoro-ethyl)-thiazol-2-ylmethyl]-2H-[1,2,3]triazol-4-yl}-amide]"
15,33,"CN(C)c1cccc(-c2ocnc2C(=O)Nc2cnn(Cc3ccc(C(C)(F)F)o3)n2)c1 [Example 19, 5-(3-Dimethylamino-phenyl)-oxazole-4-carboxylic acid {2-[5-(1,1-difluoro-ethyl)-furan-2-ylmethyl]-2H-[1,2,3]triazol-4-yl}-amide]"
